Source: patent publication US20100143452A1, “POLYPHENOL CONTAINING COMPOSITIONS” (Universiteit Utrecht Holding B.V., priority 2006, published 2010)

Key:
cells = conditions: 80 micomoles of naringenin per liter, for 24 hours; cited from earlier work
[1] = oral ingestion, best case scenario; cited from earlier work
[2] = system: B16 murine melanoma and C26 murine colon carcinoma; experiment: tumor growth in B16 or C26-tumor bearing mice; type: in vivo; conditions: i.v. 20 mg/kg, between day 7 and day 14, after a second injection at day 7
Procedure: B16 murine melanoma and C26 murine colon carcinoma cells were cultured at 37° C. in a 5% CO2-containing humidified atmosphere in DMEM medium (Gibco, Breda, The Netherlands) containing 10% (v/v) fetal calf serum supplemented with 2 mM L-glutamine, 100 IU/ml penicillin, 100 microgram/ml streptomycin and 0.25 microgram/ml amphotericin B (Gibco). Male Balb/c and C57B1/6 mice (6-8 weeks of age) were obtained from Charles River, kept in standard housing with standard rodent chow and water available ad libitum, and a 12 h light/dark cycle. Experiments were performed according to national regulations and approved by the local animal experiments ethical committee. Mice received a single intravenous injection of an indicated dose of free caffeic acid or liposomal caffeic acid prepared in Example 1 at the time when the tumor became palpable. At 7 days after treatment, tumor size was measured and tumor volume calculated according to the equation V=0.52×a^2×b, wherein a is the smallest and b is the largest superficial diameter. […] Tumor size was measured regularly, and tumor volume was calculated as described above. For the statistical analysis, data were analysed by one-way ANOVA with Dunnett's post test using GraphPad InStat version 3.05 for Windows, GraphPad Software (San Diego, USA). […] Spearman rank correlation coefficient was calculated to identify dose-response. […]

[3] = dietary (ingested) polyphenols; cited from earlier work

O=C1C[C@@H](c2ccc(O)cc2)Oc2cc(O)cc(O)c21 [naringenin]
reduction of hydroxyl damage to the DNA (cells): 24%
ingested amount absorbed in the human gastrointestinal tract [1]: ≤ 15%

O=C(O)/C=C/c1ccc(O)c(O)c1 [free caffeic acid, caffeic acid]
effect on tumor volume [2]: did not reduce tumor volume

O=c1c(O)c(-c2ccc(O)c(O)c2)oc2cc(O)cc(O)c12 [quercetin]
bioavailability [3]: 1-5%
